US8518980B2, “Treatment of Duchenne muscular dystrophy” (Summit Corporation PLC, priority 2006, dated 2013)
Structures can show the parent of a compound that is named as a salt.

Tested on: Utrophin A promoter linked to a luciferase reporter gene (H2K/mdx/Utro A reporter cell line)
Assay: Luciferase reporter assay (murine H2K cells)
Conditions: Mus musculus, H2K mdx

Row | SMILES | activity at 10 µM [%]
1 | COc1ccc(-c2nc3cc([N+](=O)[O-])ccc3[nH]2)cc1 [Example 586, 2-(4-Methoxyphenyl)-5-nitro-1H-benzo[d]imidazole] | 201 to 300
2 | COc1ccc(-c2nc3ccccc3s2)cc1O [Example 596, 5-(Benzo[d]thiazol-2-yl)-2-methoxyphenol] | > 401
3 | Cc1cc2nc(-c3ccc(N)cc3)oc2cc1C [Example 485, 4-(5,6-dimethylbenzo[d]oxazol-2-yl)aniline] | 201 to 300
4 | Nc1ccc(-c2nc3cc(Cl)cc(Cl)c3o2)cc1 [Example 518, 4-(5,7-dichlorobenzo[d]oxazol-2-yl)aniline] | 201 to 300
5 | O=C(Nc1ccc(-c2nc3ncccc3o2)cc1)c1ccccc1Cl [Example 641, 2-chloro-N-(4-(oxazolo[4,5-b]pyridin-2-yl)phenyl)benzamide] | 301 to 400
6 | Cc1ccc(-c2nc3cc(N)ccc3o2)cc1C [Example 603, 2-(3,4-Dimethylphenyl)benzo[d]oxazol-5-amine] | 301 to 400
7 | COCc1nc2ccccc2[nH]1 [Example 499, 2-(methoxymethyl)-1H-benzo[d]imidazole] | < 200
8 | Cc1ccc2nc(-c3ccc(NC(=O)c4cccs4)cc3)oc2c1 [Example 672, N-(4-(6-methylbenzo[d]oxazol-2-yl)phenyl)thiophene-2-carboxamide] | 201 to 300
9 | O=C(Nc1nc2ccccc2[nH]1)c1cccc(Cl)c1 [Example 679, N-(1H-benzo[d]imidazol-2-yl)-3-chlorobenzamide] | 201 to 300
10 | CCSc1nc2ccc(N)cc2s1 [Example 563, 2-(ethylthio)benzo[d]thiazol-6-amine] | 201 to 300
11 | O=C(Nc1nc2ccc(F)cc2s1)c1ccccc1Br [Example 629, 2-bromo-N-(6-fluorobenzo[d]thiazol-2-yl)benzamide] | > 401
12 | Cn1c(NC(=N)c2ccccc2)nc2ccccc21 [Example 669, N-(1-methyl-1H-benzo[d]imidazol-2-yl)benzimidamide] | 201 to 300
13 | Nc1ccc(-c2nc3ccccc3[nH]2)cc1 [Example 475, 4-(1H-benzo[d]imidazol-2-yl)aniline] | < 200
14 | O=C(Nc1ccccc1-c1nc2ccccc2[nH]1)c1ccc(S(=O)(=O)N2CCCC2)cc1 [Example 511, N-(2-(1H-benzo[d]imidazol-2-yl)phenyl)-4-(pyrrolidin-1-ylsulfonyl)benzamide] | < 200
15 | Nc1ccc2[nH]c(-c3ccco3)nc2c1 [Example 510, 2-(furan-2-yl)-1H-benzo[d]imidazol-5-amine dihydrochloride] | < 200
16 | c1ccc(NNc2nc3ccccc3s2)cc1 [Example 552, 2-(2-phenylhydrazinyl)benzo[d]thiazole] | < 200
17 | CCc1ccc2oc(-c3ccc(N)cc3)nc2c1 [Example 553, 4-(5-ethylbenzo[d]oxazol-2-yl)aniline] | > 401
18 | CCc1ccc(-c2nc3cc(N)ccc3o2)cc1 [Example 481, 2-(4-ethylphenyl)benzo[d]oxazol-5-amine] | 201 to 300
19 | CC(=O)Nc1ccc(-c2nc3cc(C)cc(C)c3o2)cc1 [Example 529, N-(4-(5,7-dimethylbenzo[d]oxazol-2-yl)phenyl)acetamide] | 201 to 300
20 | Nc1ccc2oc(-c3ccc(O)cc3)nc2c1 [Example 496, 4-(5-aminobenzo[d]oxazol-2-yl)phenol] | 201 to 300

Row | SMILES | activity at 10 µM [%]
21 | c1ccc(-c2nnc(SCc3nc4ccccc4[nH]3)o2)cc1 [Example 530, 2-((1H-benzo[d]imidazol-2-yl)methylthio)-5-phenyl-1,3,4-oxadiazole] | < 200
22 | CC(C)c1ccc2oc(-c3ccc(N)cc3O)nc2c1 [Example 565, 5-amino-2-(5-isopropylbenzo[d]oxazol-2-yl)phenol] | 301 to 400
23 | O=C(Cc1cccs1)Nc1ccc(-c2nc3ccccc3[nH]2)cc1 [Example 493, N-(4-(1H-benzo[d]imidazol-2-yl)phenyl)-2-(thiophen-2-yl)acetamide] | < 200
24 | CCc1ccc2oc(-c3ccc(C)c(N)c3)nc2c1 [Example 625, 5-(5-ethylbenzo[d]oxazol-2-yl)-2-methylaniline] | > 401
25 | Cn1c(COc2ccccc2)nc2ccccc21 [Example 474, 1-methyl-2-(phenoxymethyl)-1H-benzo[d]imidazole] | < 200
26 | O=[N+]([O-])c1ccc(-c2nc3ccccc3o2)cc1 [Example 477, 2-(4-nitrophenyl)benzo[d]oxazole] | < 200
27 | CC(=O)Oc1ccc(C(=O)Nc2ccc(-c3nc4ccccc4[nH]3)cc2)cc1 [Example 655, 4-(4-(1H-benzo[d]imidazol-2-yl)phenylcarbamoyl)phenyl acetate] | 301 to 400
28 | Cn1c(-c2ccc(N)cc2)nc2cc(N)ccc21 [Example 490, 2-(4-aminophenyl)-1-methyl-1H-benzo[d]imidazol-5-amine] | < 200
29 | Nc1ccc2[nH]c(-c3ccc(Cl)cc3)nc2c1 [Example 560, 2-(4-chlorophenyl)-1H-benzo[d]imidazol-5-amine] | 301 to 400
30 | O=C(Nc1ccccc1F)c1sc2ccccc2c1Cl [Example 621, 3-chloro-N-(2-fluorophenyl)benzo[b]thiophene-2-carboxamide] | > 401
31 | CCS(=O)(=O)c1ccc2oc(S)nc2c1 [Example 574, 5-(ethylsulfonyl)benzo[d]oxazole-2-thiol] | < 200
32 | Cc1ccc(-c2nc3ccccc3[nH]2)cc1N [Example 620, 5-(1H-benzo[d]imidazol-2-yl)-2-methylaniline] | > 401
33 | Cc1ccc(NC(=O)Nc2nc3ccccc3s2)cc1 [Example 637, 1-(benzo[d]thiazol-2-yl)-3-p-tolylurea] | 301 to 400
34 | O=C(Nc1ccc(-c2nc3ccccc3[nH]2)cc1)c1cccs1 [Example 585, N-(4-(1H-Benzo[d]imidazol-2-yl)phenyl)thiophene-2-carboxamide] | > 401
35 | CCc1ccc2oc(-c3cccc(N)c3)nc2c1 [Example 502, 3-(5-ethylbenzo[d]oxazol-2-yl)aniline] | 201 to 300
36 | O=C(Nc1ccccc1F)C(=O)c1c[nH]c2ccccc12 [Example 689, N-(2-fluorophenyl)-2-(1H-indol-3-yl)-2-oxoacetamide] | 201 to 300
37 | COc1ccc2oc(-c3ccc(C)c(N)c3)nc2c1 [Example 686, 5-(5-methoxybenzo[d]oxazol-2-yl)-2-methylaniline] | 201 to 300
38 | Cc1ccc2oc(-c3ccc(Cl)c(N)c3)nc2c1 [Example 636, 2-chloro-5-(5-methylbenzo[d]oxazol-2-yl)aniline] | 301 to 400
39 | Cc1cc(-c2nc3cc(N)ccc3o2)ccc1Br [Example 649, 2-(4-bromo-3-methylphenyl)benzo[d]oxazol-5-amine] | 301 to 400
40 | c1ccc(OCc2nc3ccccc3[nH]2)cc1 [Example 471, 2-(phenoxymethyl)-1H-benzo[d]imidazole] | 201 to 300

Row | SMILES | activity at 10 µM [%]
41 | COc1ccc(-c2nc3cc(NC(C)=O)ccc3o2)cc1Cl [Example 519, N-(2-(3-chloro-4-methoxyphenyl)benzo[d]oxazol-5-yl)acetamide] | 201 to 300
42 | O=C(Nc1cccc(-c2nc3ccccc3[nH]2)c1)c1ccccc1 [Example 464, N-(3-(1H-benzo[d]imidazol-2-yl)phenyl)benzamide] | < 200
43 | Cc1cc(C)c2oc(-c3ccc(Cl)c(N)c3)nc2c1 [Example 627, 2-chloro-5-(5,7-dimethylbenzo[d]oxazol-2-yl)aniline] | > 401
44 | CC(=O)c1c(C)nc(Nc2nc3ccccc3o2)nc1C [Example 681, 1-(2-(benzo[d]oxazol-2-ylamino)-4,6-dimethylpyrimidin-5-yl)ethanone] | 201 to 300
45 | O=S(=O)(c1ccc(-c2nc3ccccc3s2)cc1)N1CCCCC1 [Example 516, 2-(4-(piperidin-1-ylsulfonyl)phenyl)benzo[d]thiazole] | 201 to 300
46 | O=C(Nc1nc2ccc(F)cc2s1)c1cccs1 [Example 658, N-(6-fluorobenzo[d]thiazol-2-yl)thiophene-2-carboxamide] | 301 to 400
47 | Cc1ccc2nc(-c3ccc(NC(=O)C(C)C)cc3)oc2c1 [Example 564, N-(4-(6-methylbenzo[d]oxazol-2-yl)phenyl)isobutyramide] | < 200
48 | Nc1cccc(-c2nc3ccccc3s2)c1 [Example 602, 3-(Benzo[d]thiazol-2-yl)aniline] | 301 to 400
49 | O=C(Nc1ccc(-c2nc3ccccc3[nH]2)cc1)c1ccccc1 [Example 497, N-(4-(1H-benzo[d]imidazol-2-yl)phenyl)benzamide] | < 200
50 | Nc1ccc2oc(-c3ccc(Cl)c(Cl)c3)nc2c1 [Example 480, 2-(3,4-dichlorophenyl)benzo[d]oxazol-5-amine] | 201 to 300
51 | COc1ccc(-c2nc3cc(N)ccc3[nH]2)cc1 [Example 535, 2-(4-methoxyphenyl)-1H-benzo[d]imidazol-5-amine] | 201 to 300
52 | Cc1ccc(-c2nc3ccccc3n2C)cc1 [Example 588, 1-Methyl-2-p-tolyl-1H-benzo[d]imidazole] | 301 to 400
53 | Cc1cc2nc(-c3ccc(N)cc3O)oc2cc1C [Example 610, 5-Amino-2-(5,6-dimethylbenzo[d]oxazol-2-yl)phenol] | > 401
54 | Clc1ccc(-c2nc3cc(CN4CCCCC4)ccc3o2)cc1 [Example 469, 2-(4-chlorophenyl)-5-(piperidin-1-ylmethyl)benzo[d]oxazole] | < 200
55 | Cc1cc(-c2nc3cc(Cl)ccc3o2)ccc1[N+](=O)[O-] [Example 539, 5-chloro-2-(3-methyl-4-nitrophenyl)benzo[d]oxazole] | < 200
56 | Cc1ccc(-c2nc3ccccc3[nH]2)cc1 [Example 613, 2-p-Tolyl-1H-benzo[d]imidazole] | 301 to 400
57 | COc1ccc(-c2nc3ccccc3s2)cc1 [Example 582, 2-(4-Methoxyphenyl)benzo[d]thiazole] | > 401
58 | CNC(=O)Nc1ccc2nc(C)oc2c1 [Example 467, 1-methyl-3-(2-methylbenzo[d]oxazol-6-yl)urea] | < 200
